Measured values taken from patent EP0244803B1, “Novel dopamine beta hydroxylase inhibitors” (MERRELL DOW PHARMACEUTICALS INC., priority 1986, dated 1987).

Legend:
[1] = tested on: spontaneously hypertensive rats (SHR's); experiment: Antihypertensive effect: blood pressure monitored continuously in SHR's after ip administration; type: in vivo; conditions: 50 mg/kg; for Max Change MBP: mean difference ± standard deviation; for Max Change MBP (percent, in parentheses): percent change printed in parentheses
Description: The test compound is administered intraperitoneally (ip) to rats and the blood pressure monitored continuously.

[2] = molecular target: T1, dopamine beta-hydroxylase (DBH) (Bos taurus, UniProt P15101); experiment: In vitro DBH inhibition: conversion of tyramine to octopamine, oxygen uptake measured with a polarographic electrode; type: biochemical; conditions: pH 5, 37°C preferred; concentration at which DBH activity was halved; read-out: IC₅₀
T1 sequence (P15101 33-610): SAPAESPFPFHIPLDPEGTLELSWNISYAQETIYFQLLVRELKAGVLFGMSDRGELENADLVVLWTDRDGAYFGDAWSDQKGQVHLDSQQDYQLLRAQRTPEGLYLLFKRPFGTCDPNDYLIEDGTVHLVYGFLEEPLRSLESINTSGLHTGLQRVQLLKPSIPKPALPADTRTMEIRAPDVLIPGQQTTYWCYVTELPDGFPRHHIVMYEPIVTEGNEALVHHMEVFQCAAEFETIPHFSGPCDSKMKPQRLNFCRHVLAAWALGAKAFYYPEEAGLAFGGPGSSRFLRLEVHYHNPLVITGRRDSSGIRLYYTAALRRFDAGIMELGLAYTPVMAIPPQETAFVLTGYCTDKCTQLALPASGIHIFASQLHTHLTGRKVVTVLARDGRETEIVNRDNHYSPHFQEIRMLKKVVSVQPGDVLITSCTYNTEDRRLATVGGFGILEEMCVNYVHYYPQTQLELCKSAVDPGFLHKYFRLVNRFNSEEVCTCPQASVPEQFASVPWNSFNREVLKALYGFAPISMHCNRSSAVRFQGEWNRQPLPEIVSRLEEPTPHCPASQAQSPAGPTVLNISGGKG
Description: The DBH inhibitory properties of the compounds of this invention can readily be determined in vitro by standard and well known procedures for assaying conversion of tyramine to octopamine in the presence of dopamine beta-hydroxylase. Enzymatic oxygenation by DBH is determined in aqueous solution in the presence of molecular oxygen, an electron donor such as ascorbate, and the necessary cofactors for the enzyme at pH of 5 and a temperature of 20°-40°C, preferably 37°C. The test compound is added at the desired concentration, and the system is incubated.

[3] = tested on: DBH; experiment: In vivo DBH inhibition: heart dopamine level in spontaneously hypertensive rats; conditions: Treated SHR's, 50 mg/kg, IP, 3 hours post dose; mean ± standard deviation; micrograms of dopamine per gram of heart tissue; *** p<.001 vs control
Description: In this test spontaneously hypertensive rats are dosed (i.p.) at 50 mg per kilogram of body weight and sacrificed three hours later.

Row | Compound | Max Change MBP [1] [mmHg] | Max Change MBP (percent, in parentheses) [1] [%] | IC50 [2] [µM] | Heart DA [3]
1 | Cc1ccc(Cn2cc[nH]c2=S)s1 [Compound 5, 1,3-Dihydro-1-[(5-methyl-2-thienyl)methyl]-2H-imidazole-2-thione] | -37±19 | 10 | 6 | Treated .048±.004*** µg/g
2 | 1-[(Fluoro-2-thienyl)methyl]-1,3-dihydro-2H-imidazole-2-thione [Compound 6] | -42±17 | 25 | 2.9 | Treated .045±.005*** µg/g
3 | S=c1[nH]ccn1Cc1ccc(Cl)s1 [Compound 4, 1-[(5-Chloro-2-thienyl)methyl]-1,3-dihydro-2H-imidazole-2-thione] | -22±5 | 13 |  | Treated .046±.009*** µg/g
4 | S=c1[nH]ccn1Cc1cccs1 [Compound 1, 1,3-Dihydro-(2-thienylmethyl)-2H-imidazole-2-thione] | -30±21 | 18 |  | Treated .066±.005*** µg/g
5 | S=c1[nH]ccn1Cc1ccco1 [Compound 3, 1-(2-Furanylmethyl)-1,3-dihydro-2H-imidazole-2-thione] |  |  |  | Treated .079±.004*** µg/g
6 | S=c1[nH]ccn1Cc1ccsc1 [Compound 2, 1,3-Dihydro-1-(3-thienylmethyl)-2H-imidazole-2-thione] | -21±27 | 12 |  | Treated .066±.012*** µg/g
